Tested on: A2058 melanoma cells
Assay: Apoptosis assay, annexin V-FITC flow cytometry
Assay type: cell-based, human
Details: 10^−5 M, 24 h, average of two parallels ± S.D., control 10.6 ± 0.51
Procedure: The pro-apoptotic effects of conjugates and Dau at 10^−5 M concentration was studied after 24 h incubation by flow cytometry using FITC-annexin V (Sony Biotechnology, Weybridge, UK) and a novel image cytometer (NucleoCounter® NC-250^TM, ChemoMetec A/S, Lillerød, Denmark) using Vitabright-48™ (ChemoMetec A/S, Lillerød, Denmark), a cell permeable dye that reacts with thiol groups to form a fluorescent product. […]
normalizing the viability of conjugate-treated cells with that of the control cells, and these indices of groups pretreated with inhibitors or DMSO were statistically compared.
The apoptotic effect of conjugates and Dau was determined by a FACSCalibur flow cytometer (Becton Dickinson, San Jose, CA, USA) after staining with annexin V-FITC (Sony Biotechnology, Weybridge, UK) and NucleoCounter® NC-250™ cell analyzer (ChemoMetec A/S, Lillerød, Denmark) using Vitabright-48™, a cell-permeable fluorescent dye (ChemoMetec A/S, Lillerød, Denmark). […]
The cells were dissociated by a TrypLE reagent (Thermo Fisher Scientific, Waltham, MA, USA) composed of recombinant enzyme protecting the cell’s surface proteins and it was followed by a centrifugation and a washing step with PBS. […] Before labeling with annexin V-FITC, the cells were measured by a flow cytometer for controlling the autofluorescence of cells in case of each treatment group. […]

SMILES: COc1cccc2c1C(=O)c1c(O)c3c(c(O)c1C2=O)C[C@@](O)(C(C)=O)C[C@@H]3O[C@H]1C[C@H](N)[C@H](O)[C@H](C)O1 [daunorubicin]
- the ratio of apoptotic cells, annexin V: 33.6 ± 5.51 %
